Laboratory results published in patent US10294246B2, “Substituted boronic acids and boronate esters as immunoproteasome inhibitors” (MERCK PATENT GMBH, priority 2014, dated 2019).

Assays:
[1] = target: human constitutive proteasome (Beta5) (Homo sapiens (Human), UniProt P28074); test: Determination of Beta5 activity (fluorescence intensity assay, Suc-LLVY-AMC); type: biochemical; conditions: purified human constitutive proteasome 1.25 nM, Suc-LLVY-AMC 40 μM
Method: Determination of Beta5 Activity:
Measurement of Beta5 inhibition is performed in 384 well format based on fluorescence intensity assay.
(§1) Purified human constitutive proteasome (1.25 nM) and serial diluted compounds in DMSO (range of concentrations from 30 μM to […]) or controls are incubated for 20 minutes at 25° C. in assay buffer containing 50 mM Tris pH 7.4, 0.03% SDS, 1 mM EDTA and 1% DMSO. The reaction is initiated by the addition of the fluorogenic peptide substrate, Suc-LLVY-AMC (Bachem 1-1395), at a concentration of 40 μM. After 60 minutes of incubation at 37° C., fluorescence intensity is measured at λex=350 nm and λem=450 nm with a fluorescence reader (Perkin Elmer Envision reader or equivalent).

[2] = target: human immunoproteasome (LMP7) (Homo sapiens (Human), UniProt P28062); test: Determination of LMP7 activity (fluorescence intensity assay, Suc-LLVY-AMC); type: biochemical; conditions: for Selectivity LMP7 vs Beta5: LMP7 versus Beta5; for IC50: purified human immunoproteasome 0.25 nM, Suc-LLVY-AMC 40 μM
Method: Determination of LMP7 Activity:
Measurement of LMP7 inhibition is performed in 384 well format based on fluorescence intensity assay.
as §1, with “immunoproteasome (0.25” for “constitutive proteasome (1.25”

| IC50 [1] [nM] | Selectivity LMP7 vs Beta5 [2] | IC50 [2] [nM] | Structure (SMILES) |
| --- | --- | --- | --- |
| 50 to 500 | +++++ (Selectivity ≥ 100) | < 50 | O=C(Cc1ccccc1OC1CCOCC1)N[C@@H](Cc1coc2ccccc12)B(O)O [Compound No. 54, [(1R)-2-(benzofuran-3-yl)-1-[[2-(2-tetrahydropyran-4-yloxyphenyl)-acetyl]amino]ethyl]boronic acid] |
| 500 to 5000 | +++++ (Selectivity ≥ 100) | < 50 | O=C(N[C@@H](Cc1coc2ccccc12)B(O)O)[C@H](CO)c1ccccc1 [Compound No. 57, [(1R)-2-(benzofuran-3-yl)-1-[[(2S)-3-hydroxy-2-phenyl-propanoyl]-amino]ethyl]boronic acid] |
| 50 to 500 | ++++ (70 ≤ Selectivity < 100) | < 50 | O=C(N[C@@H](Cc1coc2ccccc12)B(O)O)[C@@H](CO)c1ccccc1 [Compound No. 59, [(1R)-2-(benzofuran-3-yl)-1-[[(2R)-3-hydroxy-2-phenyl-propanoyl]-amino]ethyl]boronic acid] |
| > 5000 | +++++ (Selectivity ≥ 100) | 50 to 500 | O=C(Cc1ccccc1OCCCO)N[C@H](Cc1coc2ccccc12)B(O)O [Compound No. 61, [(1S)-2-(benzofuran-3-yl)-1-[[2-[2-(3-hydroxypropoxy)phenyl]acetyl]-amino]ethyl]boronic acid] |
| 500 to 5000 | +++++ (Selectivity ≥ 100) | < 50 | O=C(N[C@H](Cc1coc2ccccc12)B(O)O)[C@@H](CO)c1ccccc1 [Compound No. 62, [(1S)-2-(benzofuran-3-yl)-1-[[(2R)-3-hydroxy-2-phenyl-propanoyl]-amino]ethyl]boronic acid] |
| 50 to 500 | +++ (50 ≤ Selectivity < 70) | < 50 | O=C(Cc1ccc(N2CCCC2=O)cc1)N[C@@H](Cc1coc2ccccc12)B(O)O [Compound No. 64, [(1R)-2-(benzofuran-3-yl)-1-[[2-[4-(2-oxopyrrolidin-1-yl)phenyl]acetyl]-amino]ethyl]boronic acid] |
| 500 to 5000 | +++++ (Selectivity ≥ 100) | < 50 | O=C(N[C@@H](Cc1coc2ccccc12)B(O)O)C(c1ccccc1)c1ccccc1 [Compound No. 68, [(1R)-2-(benzofuran-3-yl)-1-[(2,2-diphenylacetyl)amino]ethyl]boronic acid] |
| 500 to 5000 | +++ (50 ≤ Selectivity < 70) | < 50 | CCOC(=O)Nc1cccc(CC(=O)N[C@@H](Cc2coc3ccccc23)B(O)O)c1 [Compound No. 72, [(1R)-2-(benzofuran-3-yl)-1-[[2-[3-(ethoxycarbonylamino)phenyl]-acetyl]amino]ethyl]boronic acid] |
| > 5000 | +++ (50 ≤ Selectivity < 70) | 50 to 500 | O=C(Cc1ccccc1)N[C@@H](Cc1c(Cl)oc2ccccc12)B(O)O [Compound No. 73, [(1R)-2-(2-chlorobenzofuran-3-yl)-1-[(2-phenylacetyl)amino]ethyl]-boronic acid] |
| 500 to 5000 | +++++ (Selectivity ≥ 100) | < 50 | O=C(Cc1ccccc1)N[C@@H](CC1COc2ccccc21)B(O)O (stereo partly drawn) [Compound No. 74, [(1R)-2-(2,3-dihydrobenzofuran-3-yl)-1-[(2-phenylacetyl)amino]-ethyl]boronic acid] |
| 500 to 5000 | +++++ (Selectivity ≥ 100) | < 50 | Cc1cccc2c(C[C@H](NC(=O)Cc3ccccc3)B(O)O)coc12 [Compound No. 75, [(1R)-2-(7-methylbenzofuran-3-yl)-1-[(2-phenylacetyl)amino]-ethyl]boronic acid] |

Continued, compound first:

| Structure (SMILES) | IC50 [1] [nM] | Selectivity LMP7 vs Beta5 [2] | IC50 [2] [nM] |
| --- | --- | --- | --- |
| O=C(Cc1ccccc1OCCCO)N[C@@H](Cc1coc2ccccc12)B(O)O [Compound No. 55, [(1R)-2-(benzofuran-3-yl)-1-[[2-[2-(3-hydroxypropoxy)phenyl]acetyl]-amino]ethyl]boronic acid] | 500 to 5000 | ++++ (70 ≤ Selectivity < 100) | < 50 |
| O=C(N[C@H](Cc1coc2ccccc12)B(O)O)[C@H](CO)c1ccccc1 [Compound No. 56, [(1S)-2-(benzofuran-3-yl)-1-[[(2S)-3-hydroxy-2-phenyl-propanoyl]-amino]ethyl]boronic acid] | > 5000 | +++++ (Selectivity ≥ 100) | 50 to 500 |
| COc1ccc(OC)c(CC(=O)N[C@@H](Cc2coc3ccccc23)B(O)O)c1 [Compound No. 58, [(1R)-2-(benzofuran-3-yl)-1-[[2-(2,5-dimethoxyphenyl)acetyl]amino]-ethyl]boronic acid] | 50 to 500 | ++++ (70 ≤ Selectivity < 100) | < 50 |
| COc1ccc(CC(=O)N[C@@H](Cc2coc3ccccc23)B(O)O)c(OC)c1OC [Compound No. 60, [(1R)-2-(benzofuran-3-yl)-1-[[2-(2,3,4-trimethoxyphenyl)acetyl]amino]-ethyl]boronic acid] | 50 to 500 | ++++ (70 ≤ Selectivity < 100) | < 50 |
| O=C(Cc1ccccc1C(=O)N1CCOCC1)N[C@@H](Cc1coc2ccccc12)B(O)O [Compound No. 63, [(1R)-2-(benzofuran-3-yl)-1-[[2-[2-(morpholine-4-carbonyl)phenyl]-acetyl]amino]ethyl]boronic acid] | 500 to 5000 | +++++ (Selectivity ≥ 100) | < 50 |
| CCNC(=O)c1ccccc1CC(=O)N[C@@H](Cc1coc2ccccc12)B(O)O [Compound No. 65, [(1R)-2-(benzofuran-3-yl)-1-[[2-[2-(ethylcarbamoyl)phenyl]acetyl]-amino]ethyl]boronic acid] | 500 to 5000 | ++++ (70 ≤ Selectivity < 100) | < 50 |
| CN(C)C(=O)c1ccccc1CC(=O)N[C@@H](Cc1coc2ccccc12)B(O)O [Compound No. 66, [(1R)-2-(benzofuran-3-yl)-1-[[2-[2-(dimethylcarbamoyl)phenyl]acetyl]-amino]ethyl]boronic acid] | 500 to 5000 | +++++ (Selectivity ≥ 100) | < 50 |
| O=C(Cc1ccc(-c2ccccc2)cc1)N[C@@H](Cc1coc2ccccc12)B(O)O [Compound No. 67, [(1R)-2-(benzofuran-3-yl)-1-[[2-(4-phenylphenyl)acetyl]amino]ethyl]-boronic acid] | 500 to 5000 | ++ (10 ≤ Selectivity < 50) | < 50 |
| O=C(Cc1ccc(-c2ccccc2)cc1)N[C@H](Cc1coc2ccccc12)B(O)O [Compound No. 69, [(1S)-2-(benzofuran-3-yl)-1-[[2-(4-phenylphenyl)acetyl]amino]ethyl]-boronic acid] | 500 to 5000 | ++ (10 ≤ Selectivity < 50) | 50 to 500 |
| COc1ccc(CC(C(=O)N[C@@H](Cc2coc3ccccc23)B(O)O)c2ccccc2)cc1 (stereo partly drawn) [Compound No. 71, [(1R)-2-(benzofuran-3-yl)-1-[[3-(4-methoxyphenyl)-2-phenyl-propanoyl]amino]ethyl]boronic acid] | 500 to 5000 | ++++ (70 ≤ Selectivity < 100) | < 50 |
